pIC50: −log10 of the molar value.
Columns and labels:
SKOV-3 cell line = assay: In vitro cell viability assay of FA-CDCs (CellTiter-Glo2.0); format: cell-based; conditions: FA ligands per particle 12-22; linker-drug conjugates per particle 17-25; read-out: IC50 inSKOV-3 cell line (+++)
Procedure: (§1) The in vitro cytotoxicity of the NDCs disclosed herein were tested in cancer cells. The cancer cells were cultured in folic acid-free medium (RPMI1640, ThermoFisher, GIBCO) for at least one week before the study. Cells were plated in opaque 96-well plates at a density of 3×10^3 cells per well (total of […]) and allowed to attach overnight. The following day, cells were treated with NDC (FA-CDC) prepared using the linker-payload conjugate precursor compound 202 (Example 33), at a concentration range of 0-50 nM (0, 0.001, 0.005, 0.01, 0.05, 0.1, 0.5, 1, 5, 10, 50 nM) by adding […] of 10x stock FA-CDC Solution.
(§2) Cells were treated for a pre-defined exposure time (depending on the study design, e.g., 4-6 hours, or 7 days). In the case of short-exposure-time viability study, cancer cells in each wells were washed with […] PBS and refreshed with […] of cell medium. After washing, the plates were returned back to 37° C. incubator for 7 days before the viability assay. In the case of 7-day-exposure-time viability study, no additional washing step was performed. After 7 days, the cell viability was assessed using the CellTiter-Glo2.0 assay (Promega) according to manufacturer's instructions. Data for both viability and proliferation were plotted using Prism7 software (GraphPad). Representative cell viability results of six FA-CDCs with similar surface density of Folic Acid targeting ligands and drug linkers is presented in provided in Table 4.

[1] = Drug-release assay of nanoparticle-conjugated linker-payloads under cleavage conditions (Cat-B, redox-responsive or pH-sensitive cleaving study), RP-HPLC; format: in vitro ADME; conditions: linker-payload conjugated to DBCO-functionalized silica nanoparticle, 37° C., 24 hours
Summary of the method: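 Azide linker-drugs were click-conjugated to DBCO-functionalized ultrasmall silica nanoparticles and incubated under cleavage conditions, e.g., Cat-B in 25 mM MES, 5 mM DTT, pH 5.0. Released versus non-released drug was quantified by C18 RP-HPLC peak area. Gradients were 0.01% TFA water/acetonitrile for protease/redox linkers and water/acetonitrile for pH-sensitive linkers.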

KB cell line = conditions: read-out: IC50 in KB cell line (++++); FA ligands per particle 12-22; linker-drug conjugates per particle 17-25
Procedure: as §1
as §2, with “(GraphPad).” for “(GraphPad). Representative cell viability results of six FA-CDCs with similar surface density of Folic Acid targeting ligands and drug linkers is presented in provided in Table 4.”

Human KB cells = assay: Cell viability assay of payloads (CellTiter-Glo 2.0); format: cell-based; conditions: 168 h; Human KB cells, 7 days treatment, 0-1,000 nM; read-out: IC50 values (diluted in RPMI medium)
Procedure: Method: Human KB cells (ATCC® CCL-17™) were cultured in folic acid free rpmi-1640 medium (ThermoFisher, GIBCO) for at least 7 days before the study. The cells were seeded in opaque 96-well plates and allowed to attach overnight (cell density was carefully controlled to be 3,000 cells per well at the time of assay). After that, cells were treated with drug analogs (suspended in the same RPMI-1640 medium) at a concentration of zero to 1,000 nM. After 7 days, cell viability was assessed using the CellTiter-Glo® 2.0 assay (Promega) according to the manufacturer's instructions. The percent of viable cells at each concentration was calculated by normalizing the luminescence values to the untreated control. The half-maximal inhibitory concentration (IC50) of the payloads were plotted and fitted by using the Prism 8 software (GraphPad). Table 2 provides the IC50 of the payloads of the present disclosure (‘+’ indicates 1-9.9 nm; ‘++’ indicates 10-100 nm).

For `CC[C@@]1(O)C(=O)OCc2c1cc1n(c2=O)Cc2c-1nc1cc(F)c(C)c3c1c2[C@@H](NC(=O)OCc1ccc(NC(=O)[C@H](CCCCN)NC(=O)[C@H](Cc2ccccc2)NC(=O)CCOCCOCCOCCOCCOCCOCCOCCOCCOCCN=[N+]=[N-])cc1)CC3` (single isomer, unassigned) [Example 25], the pIC50 (SKOV-3 cell line) was 9.40 and the “% of Payload Release in 24 Hours Under Cleavage Conditions” value (shortened to “% of Payload Release”) [1] was “+++ (‘+++’ indicates 51-75% release)”.
In the case of `CC[C@@]1(O)C(=O)OCc2c1cc1n(c2=O)Cc2c-1nc1cc(F)c(C)c3c1c2[C@@H](NC(=O)OCc1c(F)cc(NC(=O)[C@H](CCCNC(N)=O)NC(=O)[C@@H](NC(=O)CCOCCOCCOCCOCCOCCOCCOCCOCCOCCN=[N+]=[N-])C(C)C)cc1F)CC3` (single isomer, unassigned) [Example 27, 4-((32s,35s)-1-azido-32-isopropyl-30,33-dioxo-35-(3-ureidopropyl)-3,6,9,12,15,18,21,24,27-nonaoxa-31,34-diazahexatriacontan-36-amido)-2,6-difluorobenzyl ((1s,9s)-9-ethyl-5-fluoro-9-hydroxy-4-methyl-10,13-dioxo-2,3,9,10,13,15-hexahydro-1H,12H-benzo[de]pyrano[3′,4′:6,7]indolizino[1,2-b]quinolin-1-yl)carbamate], the pIC50 (KB cell line) was 8.28 and the “% of Payload Release” value [1] was “++++ (‘++++’ indicates 76-100% release)”.
For `CC[C@@]1(O)C(=O)OCc2c1cc1n(c2=O)Cc2c-1nc1cc(F)c(C)c3c1c2[C@@H](NC(=O)OCc1ccc(NC(=O)[C@H](CCCNC(N)=O)NC(=O)[C@@H](NC(=O)CCOCCOCCOCCOCCOCCOCCOCCOCCOCCN=[N+]=[N-])C(C)C)cc1)CC3` [Example 10, 4-((32S,35S)-1-azido-32-isopropyl-30,33-dioxo-35-(3-ureidopropyl)-3,6,9,12,15,18,21,24,27-nonaoxa-31,34-diazahexatriacontan-36-amido)benzyl-((1S,9S)-9-ethyl-5-fluoro-9-hydroxy-4-methyl-10,13-dioxo-2,3,9,10,13,15-hexahydro-1H,12H-benzo-[de]-pyrano-[3′,4′:6,7]-indolizino-[1,2-b]-quinolin-1-yl)-carbamate], the pIC50 (SKOV-3 cell line) was 7.97 and the “% of Payload Release” value [1] was “+++ (‘+++’ indicates 51-75% release)”.
In the case of `CC[C@@]1(O)C(=O)OCc2c1cc1n(c2=O)Cc2c-1nc1cc(F)c(C)c3c1c2[C@@H](NC(=O)C(O)c1ccc(NC(=O)[C@H](CCCNC(N)=O)NC(=O)[C@@H](NC(=O)CCOCCOCCOCCOCCOCCOCCN=[N+]=[N-])C(C)C)cc1)CC3` (stereo partly drawn) [Example 18, 1-azido-N-((2S)-1-(((2S)-1-((4-(2-(((1S,9S)-9-ethyl-5-fluoro-9-hydroxy-4-methyl-10,13-dioxo-2,3,9,10,13,15-hexahydro-1H,12H-benzo[de]pyrano[3′,4′:6,7]indolizino[1,2-b]quinolin-1-yl)amino)-1-hydroxy-2-oxoethyl)phenyl)amino)-1-oxo-5-ureidopentan-2-yl)amino)-3-methyl-1-oxobutan-2-yl)-3,6,9,12,15,18-hexaoxahenicosan-21-amide], the pIC50 (KB cell line) was 7.76 and the “% of Payload Release” value [1] was “+++ (‘+++’ indicates 51-75% release)”.
In the case of `CCc1c2c(nc3ccc(OCCCNC(=O)OCc4ccc(NC(=O)[C@H](CCCCN)NC(=O)[C@H](Cc5ccccc5)NC(=O)CCOCCOCCOCCOCCOCCOCCOCCOCCOCCN=[N+]=[N-])cc4)cc13)-c1cc3c(c(=O)n1C2)COC(=O)[C@]3(O)CC` [Example 28, 4-((32S,35S)-35-(4-aminobutyl)-1-azido-32-benzyl-30,33-dioxo-3,6,9,12,15,18,21,24,27-nonaoxa-31,34-diazahexatriacontan-36-amido)benzyl (3-(((S)-4,11-diethyl-4-hydroxy-3,14-dioxo-3,4,12,14-tetrahydro-1H-pyrano[3′,4′:6,7]indolizino[1,2-b]quinolin-9-yl)oxy)propyl)carbamate], the pIC50 (KB cell line) was 7.14 and the “% of Payload Release” value [1] was “+++ (‘+++’ indicates 51-75% release)”.
With `CC[C@@]1(O)C(=O)OCc2c1cc1n(c2=O)Cc2c-1nc1cc(F)c(C)c3c1c2[C@@H](NC(=O)OCc1ccc(NC(=O)[C@H](CCCCN)NC(=O)[C@@H](NC(=O)CCOCCOCCOCCOCCOCCOCCOCCOCCOCCN=[N+]=[N-])C(C)C)cc1)CC3` [Example 33, 4-((32S,35S)-35-(4-aminobutyl)-1-azido-32-isopropyl-30,33-dioxo-3,6,9,12,15,18,21,24,27-nonaoxa-31,34-diazahexatriacontan-36-amido)benzyl ((1S,9S)-9-ethyl-5-fluoro-9-hydroxy-4-methyl-10,13-dioxo-2,3,9,10,13,15-hexahydro-1H,12H-benzo[de]pyrano[3′,4′:6,7]indolizino[1,2-b]quinolin-1-yl)carbamate] the pIC50 (SKOV-3 cell line) was 9.89, the pIC50 (KB cell line) was 9.52 and the “% of Payload Release” value [1] was “++++ (‘++++’ indicates 76-100% release)”.
With `CC[C@@]1(O)C(=O)OCc2c1cc1n(c2=O)Cc2c-1nc1cc(F)c(C)c3c1c2[C@@H](NC(=O)OCCSSCCNC(=O)CCOCCOCCOCCOCCOCCOCCOCCOCCOCCN=[N+]=[N-])CC3` [Example 57, 37-azido-8-oxo-11,14,17,20,23,26,29,32,35-nonaoxa-3,4-dithia-7-azaheptatriacontyl ((1S,9S)-9-ethyl-5-fluoro-9-hydroxy-4-methyl-10,13-dioxo-2,3,9,10,13,15-hexahydro-1H,12H-benzo[de]pyrano[3′,4′:6,7]indolizino[1,2-b]quinolin-1-yl)carbamate] the pIC50 (SKOV-3 cell line) was 9.05, the pIC50 (KB cell line) was 9.22 and the “% of Payload Release” value [1] was “+++ (‘+++’ indicates 51-75% release)”.
With `CC[C@@]1(O)C(=O)OCc2c1cc1n(c2=O)Cc2c-1nc1cc(F)c(C)c3c1c2[C@@H](NC(=O)OCc1ccc(SSC(C)(C)CNC(=O)CCOCCOCCOCCOCCOCCOCCOCCOCCOCCN=[N+]=[N-])cc1)CC3` [Example 58, 4-((1-azido-33-methyl-30-oxo-3,6,9,12,15,18,21,24,27-nonaoxa-31-azatetratriacontan-33-yl)disulfanyl)benzyl ((1S,9S)-9-ethyl-5-fluoro-9-hydroxy-4-methyl-10,13-dioxo-2,3,9,10,13,15-hexahydro-1H,12H-benzo[de]pyrano[3′,4′:6,7]indolizino[1,2-b]quinolin-1-yl)carbamate] the pIC50 (KB cell line) was 7.31 and the “% of Payload Release” value [1] was “++++ (‘++++’ indicates 76-100% release)”.
With `CCc1c2c(nc3ccc(OCC(=O)N/N=C(\C)c4cccc(OCCOCCOCCOCCOCCOCCN=[N+]=[N-])c4)cc13)-c1cc3c(c(=O)n1C2)COC(=O)[C@]3(O)CC` [Example 70, (S,E)-N′-(1-(3-((17-azido-3,6,9,12,15-pentaoxaheptadecyl)oxy)phenyl)ethylidene)-2-((4,11-diethyl-4-hydroxy-3,14-dioxo-3,4,12,14-tetrahydro-1H-pyrano[3′,4′:6,7]indolizino[1,2-b]quinolin-9-yl)oxy)acetohydrazide] the pIC50 (SKOV-3 cell line) was 7.75.
With `CCc1c2c(nc3ccc(OCC(=O)N/N=C(\C)c4ccc(OCCCCOCCOCCOCCOCCOCCOCCN=[N+]=[N-])cc4)cc13)-c1cc3c(c(=O)n1C2)COC(=O)[C@]3(O)CC` [Example 75, (S,E)-N′-(1-(4-((1-azido-3,6,9,12,15,18-hexaoxadocosan-22-yl)oxy)phenyl)ethylidene)-2-((4,11-diethyl-4-hydroxy-3,14-dioxo-3,4,12,14-tetrahydro-1H-pyrano[3′,4′:6,7]indolizino[1,2-b]quinolin-9-yl)oxy)acetohydrazide] the pIC50 (KB cell line) was 7.37.
In the case of `CCc1c2c(nc3ccc(Oc4nc(Cl)nc(NCCSSCCN)n4)cc13)-c1cc3c(c(=O)n1C2)COC(=O)[C@]3(O)CC` [Example 463, (S)-9-((4-((2-((2-aminoethyl)disulfaneyl)ethyl)amino)-6-chloro-1,3,5-triazin-2-yl)oxy)-4,11-diethyl-4-hydroxy-1,12-dihydro-14H-pyrano[3′,4′:6,7]indolizino[1,2-b]quinoline-3,14(4H)-dione], the pIC50 (Human KB cells) was 7.00 to 8.00.

— patent publication US20230241243A1, “CARRIER PARTICLE-DRUG CONJUGATES, SELF-IMMOLATIVE LINKERS, AND USES THEREOF” (priority 2020, published 2023)
